Experimental findings from ChEMBL document CHEMBL4823306, “Synthesis of D-π-A type benzothiazole-pyridinium salt composite and its application as photo-degradation agent for amyloid fibrils” (Bioorg Med Chem Lett, 2021) are described below.

Molecules are shown by their SMILES. Calls of active or inactive are those of the source. The rule behind the calls is not given here.

Data set [1] relates to HeLa. Nature of the data set: Dark toxicity in human HeLa cells assessed as reduction in cell viability. Format: cell-based.
The subject of data set [2] is HeLa. Nature of the data set: Phototoxicity in human HeLa cells assessed as reduction in cell viability irradiated with UVA-LED measured after 60 mins. Format: cell-based. The following applies: 1 h.
Data set [3] addresses Amyloid-beta precursor protein (Homo sapiens) (UniProt P05067). The data set can be described thus: Photo-degradation of Amyloid beta (1 to 42) (unknown origin) assessed as disruption of Co2 induced aggregation at 66.7 uM irradiated with UVA-LED for 1 hr by immunoblotting analysis. (In general: A western blot detects proteins with antibodies after separation by electrophoresis.)

For data set [4] the target is unchanged. The data set can be described thus: Photo-degradation of Amyloid beta (1 to 42) (unknown origin) assessed as disruption of Co2 induced aggregation at 66.7 uM irradiated with UVA-LED measured after 5 mins by immunoblotting analysis.

Chain of Amyloid-beta precursor protein (Homo sapiens) (P05067 whole entry): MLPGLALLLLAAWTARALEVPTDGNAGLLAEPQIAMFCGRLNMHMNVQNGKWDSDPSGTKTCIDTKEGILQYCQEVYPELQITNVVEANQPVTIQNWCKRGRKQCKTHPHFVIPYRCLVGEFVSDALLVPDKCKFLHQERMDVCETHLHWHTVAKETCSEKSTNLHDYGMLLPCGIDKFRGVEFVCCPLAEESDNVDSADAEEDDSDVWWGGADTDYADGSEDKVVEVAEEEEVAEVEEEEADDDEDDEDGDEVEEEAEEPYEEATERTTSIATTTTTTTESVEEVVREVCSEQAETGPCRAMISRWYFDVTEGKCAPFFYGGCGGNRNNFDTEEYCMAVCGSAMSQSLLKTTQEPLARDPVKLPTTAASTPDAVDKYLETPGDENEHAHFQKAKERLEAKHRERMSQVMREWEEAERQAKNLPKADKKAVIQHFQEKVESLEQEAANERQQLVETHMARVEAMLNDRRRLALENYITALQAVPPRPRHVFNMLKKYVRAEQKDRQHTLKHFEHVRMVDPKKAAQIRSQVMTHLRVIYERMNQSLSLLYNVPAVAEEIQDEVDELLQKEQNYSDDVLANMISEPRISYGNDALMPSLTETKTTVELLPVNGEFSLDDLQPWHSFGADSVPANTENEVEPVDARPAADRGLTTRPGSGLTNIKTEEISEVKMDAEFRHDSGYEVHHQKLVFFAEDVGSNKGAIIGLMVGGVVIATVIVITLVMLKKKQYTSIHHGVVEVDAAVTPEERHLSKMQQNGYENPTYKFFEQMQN

Turning to `CC[n+]1ccc(-c2ccc(-c3nc4ccccc4s3)cc2)cc1.[Br-]`, the Activity entry in the data set with HeLa [1] was “Non-Toxic”; in the data set on HeLa [2], “Toxic”. The inhibition entry in data set [3] and in data set [4] was “Active” each time.
